In patent US6916793B2, “Selenium-containing pro-drugs for cancer therapy” (priority 1999, dated 2005):
Where two headings read alike, the source gives them in different places.

Experiments:
[1] = test system: keratinocytes; details: at the concentrations studied; cited from earlier work
[2] = test system: A549 cells; assay: Combined effect of SeMet with doxorubicin, cell survival; type: cell-based, human; details: A549 transfected with rAd-MET, 10% FBS
Experimental: In a similar experiment, A549 cells that had been transfected with rAd-MET were cultured in RPMI with 10% FBS in the presence and absence of 4 μM SeMet and with and without 0.4 μM doxorubicin. In the presence of doxorubicin alone, a 75% cell survival rate was obtained; when SeMet was present alone, a 60% cell survival rate was obtained.

[3] = test system: A549 cells; assay: Combined effect of SeMet with BCNU, cell survival; type: cell-based, human; details: A549 transfected with rAd-MET, 20% FBS
Experimental: A549 cells that had been transfected with rAd-MET were cultured in RPMI with 20% FBS with and without 8 μM SeMet. In each case, duplicate samples were cultured without BCNU and in the presence of 300 μM BCNU. Cell survival was determined […]. With no treatment, 100% of the cells survived; in the presence of SeMet alone, 80% of the cells survived. In the absence of SeMet, but in the presence of BCNU, 55% cell survival was obtained; in the presence of 8 μM SeMet and 300 μM BCNU, less than 10% of the cells survived. Thus, SeMet dramatically enhances the effect of BCNU.

[4] = test system: A549 human lung cancer cells; assay: Combined variation of rAd-MET and SeMet, percentage of surviving cells; type: cell-based
Experimental: The experiments described in Examples 2 and 3 were performed on A549 human lung cancer cells using varying concentrations of SeMet from 0-40 μM and of virus rAd-MET titer of 0-8×10^5 pfu using rAd as a control. Percentage of surviving cells was again used as an index of efficacy.

[5] = test system: A549 cells; assay: ROS generation, lucigenin-dependent chemiluminescence; type: cell-based, human; details: for chemiluminescence relative to control: 30 minutes
Experimental: It is believed that selenium cytotoxicity is mediated by generation of reactive oxygen species (ROS). This can be measured by standard techniques which employ lucigenin-dependent chemiluminescence as described by Yan, L., et al., Biochem Pharmacol (1993) 45:429-437, cited above.
A549 cells were transduced with rAd-MET at MOI of 50, 24 hours before measurement. The cells (1×10^6) were incubated in 1 ml RPMI in the presence of SeMet with or without 10 units of superoxide dismutase (SOD) for 30 minutes. Lucigenin (50 μg) was added to the cell suspension just prior to measurement and integrated chemiluminescence was measured for 10 seconds, three times, using a TD21 luminometer (Turner Designs).

[6] = test system: MIA PaCa-2; assay: MTT assay, serial dilutions of SeMet on transduced cells; type: cell-based; details: Homo sapiens
Experimental: (§1) Cells (4×10^3) of various tumor lines were seeded onto 96-well plates. After 24 hours, serial dilutions of the methioninase expressing vector (rAd-MET) or a control vector containing no methioninase encoding nucleotide sequence (rAd) were added to the wells with and without 20 μM of selenomethionine (SeMet) (20 μM). After incubating the plates for three (3) days, the medium was replaced with 0.5 mg/ml MTT for two (2) hours and analyzed using a microplate reader (BioRad), in a standard MTT assay. Results were recorded as percentage of surviving cells.
(§2) The cell lines were also evaluated for their response to varying concentrations of SeMet. In these protocols, the cells were seeded as above into 96-well plates and infected with 4×10^5 pfu of rAd-MET or control rAd. After 24 hours, serial dilutions of SeMet were added and three (3) days later cytotoxicity was evaluated with the MTT assay as described in Example 2. The results are shown for OVCAR-8 cells in FIG. 6.

[7] = test system: BxPC-3; assay: as above; type: cell-based; details: Homo sapiens
Experimental: as §1, §2

[8] = test system: Hep-2; assay: as above; type: cell-based; details: Homo sapiens
Experimental: as §1, §2

[9] = test system: EKVX; assay: as above; type: cell-based; details: Homo sapiens
Experimental: as §1, §2

[10] = test system: A549; assay: as above; type: cell-based; details: Homo sapiens
Experimental: as §1, §2

[11] = test system: human tumor cell lines; assay: MTT assay, summary statements over all tumor cell lines; type: cell-based; details: virtually all cell lines
Experimental: as §1
The cell lines tested were human cancer cell lines OVCAR-8 (ovarian cancer), A549 and EKVX (lung cancer), Hep-2 (head and neck cancer), MIA PaCa-2 and BxPC-3 (pancreatic cancer), human rhabdomyosarcoma cell line A204 and human prostate cell line PC-3. The results with respect to the OVCAR-8 cell line and cell lines A204, and PC-3 are shown in FIGS. 2, 3 and 4 in X/Y graphs; FIG. 5 is a bar graph of the results with respect to the A549 cell line.
as §2, with “The results are shown for OVCAR-8 cells in FIG. 6.” left out

[12] = test system: OVCAR-8; assay: MTT assay, serial dilutions of SeMet on transduced cells; type: cell-based, human; details: for IC50: Homo sapiens
Experimental: as §1, §2

## O=[Se](O)O [selenite]
[1]
  cytotoxicity in keratinocytes: cytotoxic
  induction of apoptosis in keratinocytes: induced apoptosis

## COc1cccc2c1C(=O)c1c(O)c3c(c(O)c1C2=O)C[C@@](O)(C(=O)CO)C[C@@H]3O[C@H]1C[C@H](N)[C@H](O)[C@H](C)O1 [doxorubicin, reference compound]
[2]; 0.4 μM doxorubicin alone
  cell survival rate: 75%

## C[Se]CC[C@H](N)C(=O)O [SeMet, selenomethionine]
[3]; 8 μM SeMet alone
  cell survival: 80%
[2]; 4 μM SeMet alone
  cell survival rate: 60%
[4]; A549, control vector, SeMet 20-40 μM, FIG. 7
  toxicity of selenomethionine itself: slight toxicity
[4]; A549, rAd-MET 4×10^5, SeMet 2.5 μM
  cells survived: 50%
[4]; A549, rAd-MET 8×10^5 pfu, SeMet 5 μM or more
  cell survival: substantially no cells survived
[4]; A549, rAd-MET 5,000 pfu, SeMet 20-40 μM, FIG. 8
  viability: drastically reduced viability
[5]; 10 units SOD, 160 μM and 40 μM SeMet
  effect of superoxide dismutase on SeMet-dependent chemiluminescence: inhibited by SOD
[5]; A549 transduced with rAd-MET MOI 50, 40 μM SeMet
  chemiluminescence relative to control: 20 times
[5]; A549 transduced with rAd-MET MOI 50, 160 μM SeMet
  chemiluminescence relative to control: over 100 times
[1]
  cytotoxicity in keratinocytes: not cytotoxic
  induction of apoptosis in keratinocytes: did not induce cellular apoptosis
[6]; MIA PaCa-2, read-out: SeMet IC50 (μM)
  IC50: 422 µM
[6]; MIA PaCa-2, read-out: SeMet IC50 (μM), MIA PaCa-2 transduced with Control-rAd 4×10^5 pfu
  IC50: 338 µM
[6]; MIA PaCa-2, read-out: SeMet IC50 (μM), MIA PaCa-2 transduced with rAd-MET 4×10^5 pfu
  IC50: 3.86 µM
[7]; BXPC-3, read-out: SeMet IC50 (μM)
  IC50: 312 µM
[7]; BXPC-3, read-out: SeMet IC50 (μM), BxPC-3 transduced with Control-rAd 4×10^5 pfu
  IC50: 223 µM
[7]; BXPC-3, read-out: SeMet IC50 (μM), BxPC-3 transduced with rAd-MET 4×10^5 pfu
  IC50: 3.38 µM
[8]; HEp-2, read-out: SeMet IC50 (μM)
  IC50: 411 µM
[8]; HEp-2, read-out: SeMet IC50 (μM), Hep-2 transduced with Control-rAd 4×10^5 pfu
  IC50: 387 µM
[8]; HEp-2, read-out: SeMet IC50 (μM), Hep-2 transduced with rAd-MET 4×10^5 pfu
  IC50: 1.66 µM
[9]; read-out: SeMet IC50 (μM)
  IC50: 1360 µM
[9]; read-out: SeMet IC50 (μM), EKVX transduced with Control-rAd 4×10^5 pfu
  IC50: 686 µM
[9]; read-out: SeMet IC50 (μM), EKVX transduced with rAd-MET 4×10^5 pfu
  IC50: 1.66 µM
[10]; A549, read-out: SeMet IC50 (μM)
  IC50: 486 µM
[10]; A549, read-out: SeMet IC50 (μM), A549 transduced with Control-rAd 4×10^5 pfu
  IC50: 327 µM
[10]; A549, read-out: SeMet IC50 (μM), A549 transduced with rAd-MET 4×10^5 pfu
  IC50: 0.5 µM
[11]
  change in IC50 for SeMet in the presence of rAd-MET: dramatic decrease in IC50
[12]; OVCAR-8, read-out: SeMet IC50 (μM)
  IC50: 224 µM
[12]; OVCAR-8, read-out: SeMet IC50 (μM), OVCAR-8 transduced with Control-rAd 4×10^5 pfu
  IC50: 170 µM
[12]; OVCAR-8, read-out: SeMet IC50 (μM), OVCAR-8 transduced with rAd-MET 4×10^5 pfu
  IC50: 0.59 µM
[12]; OVCAR-8 cells, FIG. 6
  lowering of IC50 for SeMet in the presence of rAd-MET as compared to control rAd: lowered over a thousandfold

## O=NN(CCCl)C(=O)NCCCl [BCNU, reference compound]
[3]; 300 μM BCNU, no SeMet
  cell survival: 55%

## N[C@@H](C[Se][Se]C[C@H](N)C(=O)O)C(=O)O [selenocystine]
[1]
  cytotoxicity in keratinocytes: cytotoxic
  induction of apoptosis in keratinocytes: induced apoptosis

## NCC[Se][Se]CCN [selenocystamine]
[1]
  cytotoxicity in keratinocytes: cytotoxic
  induction of apoptosis in keratinocytes: induced apoptosis
